Laboratory results from patent US20160082127A1, “PHOTOSENSITIZER PARTICLES FOR MEDICAL IMAGING AND/OR PHOTODYNAMIC THERAPY” (DCB-USA LLC, priority 2013, published 2016).

Test system: mice skin
Test: In vivo photohypersensitivity of mice skin
Design: species or system nude mice
Conditions: 0.3 mg/kg i.v.
Experimental: It is well known that some PDT agents result in photohypersensitivity of the skin, which causes significant inconvenience in the daily life of the patient. Typical signs of photohypersensitivity include redness and swelling of the skin, visible angiopathy along with the formation of skin debris and even eschar in server cases. To investigate whether the present photosensitizer particles may elicit photohypersensitivity in the patient, 0.3 mg/kg native CPLA photosensitizer particles (LN1 particles from Example 2.1, above) and 0.3 mg/kg gas-loaded CPLA photosensitizer particles (LA1 particles from Example 2.1, above) were respectively injected to the tail of nude mice via intravenous injection 3 hours prior to light irradiation (15, 40 or 100 J/cm^2). Foscan® (0.3 mg/kg) was used as the positive control, while 1×PBS (100 μL) was used as negative control.

With Oc1cccc(-c2c3nc(c(-c4cccc(O)c4)c4ccc([nH]4)c(-c4cccc(O)c4)c4nc(c(-c5cccc(O)c5)c5ccc2[nH]5)CC4)C=C3)c1 [Foscan®] the photohypersensitivity of skin (15 or 40 J/cm^2) was “little to mild photohypersensitivity” and the photohypersensitivity of skin (100 J/cm^2) was “significant photohypersensitivity”.
